The text below walks through data of US9354230B2, “Methods and apparatus for conducting multiple measurements on a sample” (MESO SCALE TECHNOLOGIES, LLC., priority 2001, dated 2016).

Test [1] deals with T1, HIV Reverse Transcriptase (RT) RNAse H activity (Human immunodeficiency virus type 1 group M subtype B, UniProt P04585).
T1 construct: HIV Reverse Transcriptase (RT), an enzyme with both a RNA-dependent DNA polymerase (RDDP) activity and an RNAse H activity
Put plainly: ECL assay of HIV RT RNAse H activity in one well of an MDMW Plate. As to conditions: 125 uM; data not shown. In kind it is biochemical.

Test [2] addresses T2, HIV Reverse Transcriptase (RT) RNA-dependent DNA polymerase (RDDP) activity (Human immunodeficiency virus type 1 group M subtype B, UniProt P04585).
T2 construct: HIV Reverse Transcriptase (RT), an enzyme with both a RNA-dependent DNA polymerase (RDDP) activity and an RNAse H activity
Description: ECL assay of HIV RT RDDP activity in one well of an MDMW Plate. In kind it is biochemical. Conditions: 125 uM; data not shown.

The structures appear in SMILES notation.

Regarding `Nc1ccn([C@H]2CC[C@@H](COP(=O)(O)OP(=O)(O)OP(=O)(O)O)O2)c(=O)n1` [ddCTP], the “effect on RNAse H activity” value in test [1] was “no effect”. For the same compound, the “inhibition of RDDP activity” value in test [2] is given as “completely inhibited”.
